# In PubChem BioAssay AID2743 (NMMLSC, 2010):
# Where “and” joins values, the source holds several entries; their conditions need not be identical. Equal values may be shown once. Calls of active or inactive are those of the source.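 The calls were made as follows: active = fitted half-maximal concentration for change in GFP expression of 33 µM or less; inactive = the rest.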
# Experiment: potency of AGP1-GFP expression modulators in yeast, dose response, cell-based, flow cytometry, S. cerevisiae, MLPCN hits (AID 2743)
# Details: S. cerevisiae AGP1-GFP strain, flow cytometry GFP, 3 h; at 33 µM (top of the series)
row,SMILES,GFP fluorescence (kMESF)
1,O=C(/C=C/c1ccccc1Cl)c1ccccc(=O)c1O,6.58 kMESF (inactive)
2,COc1cc(/C=C2\CC/C(=C\c3cc(OC)c(O)c(OC)c3)C2=O)cc(OC)c1O,34.6 kMESF (inactive)
3,O=C1C=C(c2ccccc2)C(=O)N1Nc1ccccc1,40.8 kMESF (inactive)
4,N/C(=N\OC(=O)c1ccccc1Cl)c1ccc(Cl)cc1,25.7 kMESF (inactive)
5,COc1cc(NC(=O)c2ccc(C)cc2)ccc1NC(=O)c1cc2ccccc2o1,43.8 kMESF (inactive)
6,COc1ccc(CCNC2=C(Cl)C(=O)N(CCc3ccc(OC)c(OC)c3)C2=O)cc1OC,41.5 kMESF (inactive)
7,Nc1ccc2ccc3cccc[n+]3c2c1,42.9 kMESF (inactive)
8,COc1ccc(NC2=C(Cl)C(=O)N(CCc3ccccc3)C2=O)cc1,43.7 kMESF (inactive)
9,N/C(Cc1ccc(Cl)cc1Cl)=N\OC(=O)c1ccccc1,29.1 kMESF (inactive)
10,COc1ccc(/C=C/C(=O)C2C(=O)C=C(C)OC2=O)cc1O (stereo not drawn),43 kMESF (inactive)
11,Cc1cccc(Nc2nc(-c3ccccn3)cs2)n1,30.1 kMESF (inactive)
12,O=[N+]([O-])c1cc(F)c2cccnc2c1O,43.3 kMESF (inactive)
13,Cc1cc(O)c(C(=O)/C=C/c2c(F)c(F)c(F)c(F)c2F)c(=O)o1,21.2 kMESF (inactive)
14,Cc1ccc(O)c(N=Nc2nccs2)c1,30.4 kMESF (inactive)
15,O=C1C=C(Nc2ccc(Cl)cc2)C(=O)N1c1ccc(Cl)cc1,37.8 kMESF (inactive)
16,COc1ccc(C2(C)ON(c3ccccc3C(F)(F)F)C2=O)cc1 (stereo not drawn),36.5 kMESF (inactive)
17,CCOC(=O)CSC1=NC(=O)/C(=C\c2ccc(Cl)cc2)S1,41.8 kMESF (inactive)
18,O=C(c1ccc([N+](=O)[O-])o1)N1CCN(c2nc3c(F)cc(F)cc3s2)CC1,30.3 kMESF (inactive)
19,O=c1/c(=C/c2cccc3ccccc23)sc2ncnn12,36.7 kMESF (inactive)
20,O=S(=O)(c1ccccc1)c1ccc(C(F)(F)F)cn1,43.8 kMESF (inactive)
21,COc1cc(N=c2ssnc2Cl)c(OC)cc1Cl,27.6 kMESF (inactive) and 26.1 kMESF (inactive)
22,O=C(OCn1ncc(Br)c(Br)c1=O)c1ccccc1Cl,46 kMESF (inactive)
23,CC(=O)Oc1cccc(N2C(=O)c3cccc4c([N+](=O)[O-])ccc(c34)C2=O)c1,31.2 kMESF (inactive)
24,C=CCOc1ccc(C(=O)/C=C2/C(=O)Nc3ccccc32)cc1,46.5 kMESF (inactive)

row,SMILES,GFP fluorescence (kMESF)
1,COc1ccc2c(c1)c1nnc(SC)nc1n2C,17.9 kMESF (inactive)
2,Cc1cc(C)nc(S/C=C/C(=O)c2ccccc2)n1,44.8 kMESF (inactive)
3,O=C(NC(=S)NNC(=O)[C@H]1C[C@@H]1c1ccccc1)c1cccc(F)c1,30.4 kMESF (inactive)
4,Cc1ccc(C(=O)O)cc1N=Cc1cc(Br)cc(Br)c1O,27.3 kMESF (inactive)
5,N/C(=N\OC(=O)c1cccc(Br)c1)c1ccccc1,21.7 kMESF (inactive)
6,Cc1cccc2c1NC(=O)/C2=C\C(=O)c1cccs1,43.9 kMESF (inactive)
7,Cc1cc(Br)c2c(c1)/C(=C/C(=O)c1cccs1)C(=O)N2,38.7 kMESF (inactive)
8,CC(C)[C@@]1(c2ccccc2)ON(c2ccccc2C(F)(F)F)C1=O,37.1 kMESF (inactive)
9,COc1cccc(/C=N/Nc2ccc([N+](=O)[O-])cn2)c1O,29.3 kMESF (inactive)
10,CC1(c2ccccc2)ON(c2ccccc2C(F)(F)F)C1=O (stereo not drawn),29.4 kMESF (inactive)
11,CCCCc1ccc(/C=C2/C(=O)ON=C2c2ccccc2)s1,38.4 kMESF (inactive)
12,Nc1ccccc1SC(C[N+](=O)[O-])c1ccccc1 (stereo not drawn),39.9 kMESF (inactive)
13,CCCc1cc(NCc2ccccn2)n2nc(C)c(-c3ccccc3)c2n1,40.4 kMESF (inactive)
14,C=CCn1c(C)c(/C=C/c2cc[n+](C)cc2)c2ccccc21,42.5 kMESF (inactive)
15,Cc1ccc(NC(=O)ON=C2CCCC2)cc1,26.4 kMESF (inactive)
16,Fc1cccc(Nc2ncnc3c2cnn3-c2ccccc2)c1,37 kMESF (inactive)
17,C=CCN1C(=O)/C(=C/c2cccs2)C(=O)NC1=S,20.4 kMESF (inactive)
18,O=C(Nc1ccc(Cl)cc1Cl)c1cccc(N2C(=O)C=CC2=O)c1,41.1 kMESF (inactive)
19,COc1ccc(N2C(=O)C(Cl)=C(Oc3cccc(OC)c3)C2=O)cc1,38.8 kMESF (inactive)
20,Oc1c(C(Nc2nc3ccccc3s2)c2ccco2)ccc2cccnc12 (stereo not drawn),39.7 kMESF (inactive)
21,Oc1ccc2ccccc2c1/C=N/Nc1nnc(-c2ncc[nH]2)c2ccccc12,21.8 kMESF (inactive)
22,O=C1ON=C(c2ccccc2)/C1=C/c1ccco1,41.7 kMESF (inactive)
23,CN(C)C(=O)Oc1ccnc2cc(Cl)ccc12,42.3 kMESF (inactive)
24,Cc1ccc(C(=O)NNC(=S)NC(=O)c2ccco2)cc1,44.1 kMESF (inactive)

row,SMILES,GFP fluorescence (kMESF)
1,COC(=O)c1cc(N2C(=O)C3C(C2=O)C2(C)C=CC3(C)O2)ccc1Cl (stereo not drawn),47.1 kMESF (inactive)
2,O=C1c2ccccc2C(=O)C2OC12 (stereo not drawn),33.7 kMESF (inactive)
3,CCN1/C(=C/C=C/c2sc3ccccc3[n+]2CC)Sc2ccccc21,70 kMESF (inactive)
4,O=C1CC(c2ccccc2)=NN1c1nc(-c2ccccc2)cs1,26 kMESF (inactive)
5,COc1ccc(/C=C/C(=O)NC(=S)NNC(=O)c2cnccn2)cc1,38.3 kMESF (inactive)
6,Cc1ccc(C2=NOC(=O)/C2=C\c2ccc(C)o2)cc1,32.4 kMESF (inactive)
7,COc1ccc(C(=O)/C=C2/C(=O)Nc3ccccc32)cc1,44.8 kMESF (inactive)
8,CC(C)C(=O)NC(c1cccs1)c1cc([N+](=O)[O-])c2cccnc2c1O (stereo not drawn),38.9 kMESF (inactive)
9,Cc1ccc(-c2nc(C)sc2CC(=O)Nc2nnc(C)s2)cc1,34.5 kMESF (inactive)
10,CN1C(=O)/C(=N\OC(=O)c2cccc3ccccc23)c2ccccc21,38.2 kMESF (inactive)
11,CSC1=NS(=O)(=O)c2c(C)nn(C)c2S1,45.6 kMESF (inactive)
12,CC1=NOC(=O)/C1=C\c1ccc(-c2cc(Cl)ccc2Cl)o1,42.3 kMESF (inactive)
13,Cc1cc(=O)oc2cc(Oc3ccc([N+](=O)[O-])cc3C(F)(F)F)ccc12,42.1 kMESF (inactive)
14,O=C(CCS(=O)(=O)c1ccccc1)Nc1nc(-c2ccccn2)cs1,35.9 kMESF (inactive)
15,CC(C)(C)C(=O)NC(=S)NNC(=O)c1sc2ccccc2c1Cl,34.2 kMESF (inactive)
16,O=[N+]([O-])c1cc(O)c2ncccc2c1,42.7 kMESF (inactive)
17,CN(C)c1ccc(/C=C/c2cc[n+](C)cc2)cc1,30 kMESF (inactive)
18,CC[C@]1(c2ccccc2OC)ON(c2ccccc2C(F)(F)F)C1=O,32.6 kMESF (inactive)
19,Cc1ccccc1N1C(=O)C(Cl)=C(N2CCN(c3ccccc3)CC2)C1=O,41.1 kMESF (inactive)
20,Cc1ccc(NC(=O)c2ccc(Cl)c(N3C(=O)C=CC3=O)c2)cc1,27.1 kMESF (inactive)
21,CCc1nc2ccccc2c(=O)n1NC(=O)c1c(O)c2ccccc2n(CC)c1=O,18.7 kMESF (inactive)
22,Oc1ccc(Br)cc1/C=N/Nc1ccccn1,36.6 kMESF (inactive)
23,Cc1ccc(S(=O)(=O)Cc2cc(F)c([N+](=O)[O-])cc2[N+](=O)[O-])cc1,37 kMESF (inactive)
24,CCCc1ccc(OCC(=O)NNC(=S)NC(=O)c2ccco2)cc1,38.1 kMESF (inactive)

row,SMILES,GFP fluorescence (kMESF)
1,N#C/C(=C\c1ccccn1)c1nc2ccccc2s1,41.8 kMESF (inactive)
2,Cn1c(=O)c(C(=O)NNC(=O)c2ccc(Br)cc2)c(O)c2ccccc21,26.2 kMESF (inactive)
3,CCCOc1ccc(C(=O)NNC(=S)NC(=O)c2ccccc2)cc1,45.1 kMESF (inactive)
4,O=C1N(c2ccccc2C(F)(F)F)O[C@]1(c1ccccc1)C1CCCC1,32.8 kMESF (inactive)
5,COc1cc(N=c2ssnc2Cl)cc(OC)c1,38.8 kMESF (inactive)
6,COc1ccc(NC(=O)/C(Cl)=C(/Cl)S(=O)Cc2ccccc2)cn1 (stereo not drawn),38.3 kMESF (inactive)
7,CCN1C(=O)/C(=C\C(=O)c2cccs2)c2cc(Br)ccc21,45.3 kMESF (inactive)
8,Cc1ccsc1/C=C1\C(=O)NC(=S)N(C)C1=O,20.6 kMESF (inactive)
9,CC(=O)CSc1ncnc2c1cnn2-c1ccccc1,38.5 kMESF (inactive)
10,O=C1c2cccc3c([N+](=O)[O-])ccc(c23)C(=O)N1O,40.9 kMESF (inactive)
11,CC(OC(=O)c1ccco1)C(=O)Nc1nc(-c2ccccc2)cs1 (stereo not drawn),40.9 kMESF (inactive)
12,CCc1nc2ccccc2c(=O)n1NC(=O)c1c(O)c2cccc3c2n(c1=O)CCC3,18.3 kMESF (inactive)
13,CC(=O)N(C(C)=O)c1ncnc2c1c(-c1ccc(Cl)cc1)nn2C(C)(C)C,36.6 kMESF (inactive)
14,COc1ccc(C(=O)NNC(=S)NC(=O)/C=C/c2cccs2)cc1,52.8 kMESF (inactive)
15,O=C(Nc1nnc(-c2ccc(F)cc2)o1)c1cccc([N+](=O)[O-])c1,44.5 kMESF (inactive)
16,O/C=c1\ccc2cccc3nc(C(F)(F)F)nc1c23,40.7 kMESF (inactive)
17,O=[N+]([O-])c1ccc(O)c(/C=N/Nc2ccccn2)c1,30.3 kMESF (inactive)
18,Oc1c(CN2CCCCC2)cc(Br)c2cccnc12,46.9 kMESF (inactive)
19,O=c1oc(/C=C/c2ccc([N+](=O)[O-])s2)nc2ccccc12,37.9 kMESF (inactive)
20,COc1ccc(-c2cc(C(F)(F)F)nc(S(C)(=O)=O)n2)cc1,36 kMESF (inactive)
21,COc1ccc(CCNC2=C(Cl)C(=O)N(CCc3ccccc3)C2=O)cc1OC,42 kMESF (inactive)
